How the values were obtained:
TNFα = experiment: Inhibition of LPS-induced TNFα expression in PBMCs (ELISA); type: cell-based; details: LPS-stimulated PBMCs; for Concentration of TNFα in PBMCs / Inhibition ratio of production of TNFα in PBMCs: overnight
Description: (§1) Peripheral blood […] (PBMCs) were isolated from fresh blood using a Ficoll-Paque Plus reagent (Amersham Bioscience) according to the protocol recommended by the manufacturer. The cells were suspended in a RPMI 1640 medium containing 10% FBS at a concentration of 1×10^5 cells/ml and seeded in a 96-well plate (1×10^4 cells total in each well). Each reaction was carried out in three wells. […] In a positive control, dexamethason (DEX), an anti-inflammatory agent, instead of 5-HMF, was added (final concentration 10 μM). In a positive control, 10 μl of the medium, instead of 5-HMF, was added. The plate was incubated at 37° C. under 5% CO2 for 15 minutes. After 10 μl aliquots of 100 μg/ml of lipopolysaccharide (LPS) were added to all wells except for the negative control, the plate was incubated at 37° C. under 5% CO2 overnight. The plate was spun at 1000 rpm for 15 minutes and the supernatants were collected. The concentrations of TNFα and IL-1β were measured by the TNFα ELISA (Enzyme Linked Immunosorbent Assay) Kit and IL1-β ELISA Kit (Jingmei Bioengineer Technology). The inhibition ratios of TNFα and IL1-β were calculated as follows and the results are shown in Tables 1 and 2: TNFα Inhibition Ratio (%)=[TNFα]control−[TNFα]5-HMF/[TNFα]control×100% IL1-β Inhibition Ratio (%)=[IL1-β]control−[IL1-β]5-HMF/[IL1-β]control×100% where [TNFα]5-HMF is the concentration of TNFα in PBMCs treated with 5-HMF and LPS, [TNFα]control is the concentration of TNFα in PBMCs treated with LPS and the medium, [IL1-β]5-HMF is the concentration of IL1-β in PBMCs treated with 5-HMF and LPS, and [IL1-β]control is the concentration of IL1-β in PBMCs treated with LPS and the medium.

IL-1β = experiment: Inhibition of LPS-induced IL-1β expression in PBMCs (ELISA); type: cell-based; details: LPS-stimulated PBMCs; for Concentration of IL-1β in PBMCs / Inhibition ratio of production of IL-1β in PBMCs: overnight
Description: as §1

[1] = at the concentration of 300 μg/ml

O=Cc1ccc(CO)o1 [5-HMF, 5-(hydroxymethyl)furfural]
Concentration of TNFα in PBMCs (TNFα; 5-HMF 3 μg/ml): 124.4 ± 15.2 pg/mL
Inhibition ratio of production of TNFα in PBMCs (TNFα; 5-HMF 3 μg/ml): 15.7 ± 10.3%
Concentration of TNFα in PBMCs (TNFα; 5-HMF 10 μg/ml): 107.9 ± 20.0 pg/mL
Inhibition ratio of production of TNFα in PBMCs (TNFα; 5-HMF 10 μg/ml): 26.8 ± 13.6%
Concentration of TNFα in PBMCs (TNFα; 5-HMF 30 μg/ml): 82.9 ± 27.9 pg/mL
Inhibition ratio of production of TNFα in PBMCs (TNFα; 5-HMF 30 μg/ml): 43.8 ± 18.9%
Concentration of TNFα in PBMCs (TNFα; 5-HMF 100 μg/ml): 39.3 ± 19.7 pg/mL
Inhibition ratio of production of TNFα in PBMCs (TNFα; 5-HMF 100 μg/ml): 73.4 ± 13.4%
Concentration of TNFα in PBMCs (TNFα; 5-HMF 300 μg/ml): 0.3 ± 6.4 pg/mL
Inhibition ratio of production of TNFα in PBMCs (TNFα; 5-HMF 300 μg/ml): 99.3 ± 4.3%
Inhibition of expression of TNFα (in words) (TNFα; [1]): completely inhibited
Inhibition of expression of TNFα (in words) (TNFα; over the tested concentrations): concentration-dependent
Concentration of IL-1β in PBMCs (IL-1β; 5-HMF 3 μg/ml): 69.9 ± 12.6 pg/mL
Inhibition ratio of production of IL-1β in PBMCs (IL-1β; 5-HMF 3 μg/ml): 40.2 ± 10.8%
Concentration of IL-1β in PBMCs (IL-1β; 5-HMF 10 μg/ml): 62.7 ± 10.5 pg/mL
Inhibition ratio of production of IL-1β in PBMCs (IL-1β; 5-HMF 10 μg/ml): 46.4 ± 9.0%
Concentration of IL-1β in PBMCs (IL-1β; 5-HMF 30 μg/ml): 40.1 ± 2.4 pg/mL
Inhibition ratio of production of IL-1β in PBMCs (IL-1β; 5-HMF 30 μg/ml): 65.7 ± 2.0%
Concentration of IL-1β in PBMCs (IL-1β; 5-HMF 100 μg/ml): 13.0 ± 3.7 pg/mL
Inhibition ratio of production of IL-1β in PBMCs (IL-1β; 5-HMF 100 μg/ml): 88.8 ± 3.1%
Concentration of IL-1β in PBMCs (IL-1β; 5-HMF 300 μg/ml): 0 ± 5.0 pg/mL
Inhibition ratio of production of IL-1β in PBMCs (IL-1β; 5-HMF 300 μg/ml): 100 ± 4.3%
Inhibition of expression of IL-1β (in words) (IL-1β; [1]): completely inhibited
Inhibition of expression of IL-1β (in words) (IL-1β; over the tested concentrations): concentration-dependent

C[C@@H]1C[C@H]2[C@@H]3CCC4=CC(=O)C=C[C@]4(C)[C@@]3(F)[C@@H](O)C[C@]2(C)[C@@]1(O)C(=O)CO [DEX, dexamethason, reference compound]
Concentration of TNFα in PBMCs (TNFα; 10 μM DEX): 39.5 ± 9.0 pg/mL
Inhibition ratio of production of TNFα in PBMCs (TNFα; 10 μM DEX): 73.2 ± 6.1%
Concentration of IL-1β in PBMCs (IL-1β; 10 μM DEX): 20.2 ± 7.0 pg/mL
Inhibition ratio of production of IL-1β in PBMCs (IL-1β; 10 μM DEX): 82.7 ± 6.0%
